Source: ChEMBL document CHEMBL5291721, “A preclinical secondary pharmacology resource illuminates target-adverse drug reaction associations of marketed drugs” (Nat Commun, 2023)

Key:
Mu-type opioid receptor = Mu-type opioid receptor (Homo sapiens, UniProt P35372)
Histamine H2 receptor = Histamine H2 receptor (Homo sapiens, UniProt P25021); assay type: functional, cell-based
Melanocortin receptor 4 = Melanocortin receptor 4 (Homo sapiens, UniProt P32245)
Glucocorticoid receptor = target: T1, Glucocorticoid receptor (Homo sapiens, UniProt P04150)
T1 sequence (P04150 whole entry): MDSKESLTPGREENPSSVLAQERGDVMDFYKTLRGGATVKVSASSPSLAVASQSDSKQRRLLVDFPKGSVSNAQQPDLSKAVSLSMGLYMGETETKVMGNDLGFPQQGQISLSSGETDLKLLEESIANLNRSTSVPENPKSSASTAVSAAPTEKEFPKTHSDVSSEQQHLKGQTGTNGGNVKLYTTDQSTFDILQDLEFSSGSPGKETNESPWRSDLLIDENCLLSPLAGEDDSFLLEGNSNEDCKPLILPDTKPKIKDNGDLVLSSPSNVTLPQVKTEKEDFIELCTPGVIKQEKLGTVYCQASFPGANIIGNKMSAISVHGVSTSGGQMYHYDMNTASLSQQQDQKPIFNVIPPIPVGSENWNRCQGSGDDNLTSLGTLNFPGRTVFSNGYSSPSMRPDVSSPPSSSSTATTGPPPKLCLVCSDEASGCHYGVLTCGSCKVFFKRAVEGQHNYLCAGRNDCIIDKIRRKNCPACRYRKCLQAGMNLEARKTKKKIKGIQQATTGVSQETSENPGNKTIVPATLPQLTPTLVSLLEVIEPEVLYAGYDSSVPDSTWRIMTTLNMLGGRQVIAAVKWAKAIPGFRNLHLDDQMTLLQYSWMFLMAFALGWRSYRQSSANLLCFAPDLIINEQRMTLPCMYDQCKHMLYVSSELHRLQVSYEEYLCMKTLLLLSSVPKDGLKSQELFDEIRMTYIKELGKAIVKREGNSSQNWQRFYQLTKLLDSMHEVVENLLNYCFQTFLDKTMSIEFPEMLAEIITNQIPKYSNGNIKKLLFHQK

[1] = target: 5-hydroxytryptamine receptor 2B (Homo sapiens, UniProt P41595); assay type: functional, cell-based
Sequence of 5-hydroxytryptamine receptor 2B (P41595 whole entry): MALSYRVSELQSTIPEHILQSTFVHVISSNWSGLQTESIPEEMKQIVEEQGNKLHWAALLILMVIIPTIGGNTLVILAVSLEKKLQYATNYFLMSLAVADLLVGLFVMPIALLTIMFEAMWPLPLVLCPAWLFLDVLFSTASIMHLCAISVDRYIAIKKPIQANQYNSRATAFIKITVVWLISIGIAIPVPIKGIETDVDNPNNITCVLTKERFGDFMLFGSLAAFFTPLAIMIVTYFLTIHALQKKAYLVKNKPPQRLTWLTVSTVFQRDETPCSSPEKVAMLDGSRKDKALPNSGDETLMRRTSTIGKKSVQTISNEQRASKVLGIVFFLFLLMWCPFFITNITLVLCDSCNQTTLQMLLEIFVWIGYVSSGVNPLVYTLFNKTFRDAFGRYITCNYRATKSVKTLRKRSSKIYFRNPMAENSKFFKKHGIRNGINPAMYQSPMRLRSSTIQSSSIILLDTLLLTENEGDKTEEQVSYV

Estrogen receptor = target: T2, Estrogen receptor (Homo sapiens, UniProt P03372)
T2 sequence (P03372 whole entry): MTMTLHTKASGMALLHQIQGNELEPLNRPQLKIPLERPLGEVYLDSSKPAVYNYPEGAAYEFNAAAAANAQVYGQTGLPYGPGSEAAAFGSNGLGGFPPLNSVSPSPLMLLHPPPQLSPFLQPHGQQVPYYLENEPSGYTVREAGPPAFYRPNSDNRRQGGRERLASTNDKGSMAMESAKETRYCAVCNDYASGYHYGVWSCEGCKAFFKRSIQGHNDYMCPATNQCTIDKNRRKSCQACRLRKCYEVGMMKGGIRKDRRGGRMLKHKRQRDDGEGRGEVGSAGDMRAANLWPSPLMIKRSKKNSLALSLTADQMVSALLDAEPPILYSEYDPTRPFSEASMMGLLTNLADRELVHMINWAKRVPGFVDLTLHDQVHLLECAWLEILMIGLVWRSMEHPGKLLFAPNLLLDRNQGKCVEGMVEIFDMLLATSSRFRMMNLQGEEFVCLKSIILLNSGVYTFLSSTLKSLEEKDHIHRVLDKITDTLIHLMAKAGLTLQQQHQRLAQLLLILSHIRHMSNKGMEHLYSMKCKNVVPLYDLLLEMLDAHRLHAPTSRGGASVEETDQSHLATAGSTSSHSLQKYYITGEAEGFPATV

[2] = target: Prostaglandin G/H synthase 1 (Homo sapiens, UniProt P23219); assay type: functional
Sequence of Prostaglandin G/H synthase 1 (P23219 whole entry): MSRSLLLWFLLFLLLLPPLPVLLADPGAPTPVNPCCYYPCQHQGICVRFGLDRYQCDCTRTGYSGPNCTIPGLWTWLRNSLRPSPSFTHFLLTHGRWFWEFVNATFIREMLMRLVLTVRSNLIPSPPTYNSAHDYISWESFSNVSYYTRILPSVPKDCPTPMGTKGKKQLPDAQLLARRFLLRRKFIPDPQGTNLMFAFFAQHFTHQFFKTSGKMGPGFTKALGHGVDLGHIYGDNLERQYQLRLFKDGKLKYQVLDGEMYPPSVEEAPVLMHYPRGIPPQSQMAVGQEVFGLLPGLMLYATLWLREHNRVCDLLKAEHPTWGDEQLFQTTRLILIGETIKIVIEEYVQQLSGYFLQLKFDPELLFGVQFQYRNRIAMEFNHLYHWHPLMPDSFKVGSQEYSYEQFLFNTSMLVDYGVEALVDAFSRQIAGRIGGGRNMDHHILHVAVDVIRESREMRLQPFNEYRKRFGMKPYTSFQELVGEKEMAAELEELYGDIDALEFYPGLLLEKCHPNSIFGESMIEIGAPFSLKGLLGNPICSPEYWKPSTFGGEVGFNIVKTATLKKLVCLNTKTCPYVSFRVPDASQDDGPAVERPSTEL

[3] = target: 5-hydroxytryptamine receptor 2A (Homo sapiens, UniProt P28223); assay type: functional, cell-based
Sequence of 5-hydroxytryptamine receptor 2A (P28223 whole entry): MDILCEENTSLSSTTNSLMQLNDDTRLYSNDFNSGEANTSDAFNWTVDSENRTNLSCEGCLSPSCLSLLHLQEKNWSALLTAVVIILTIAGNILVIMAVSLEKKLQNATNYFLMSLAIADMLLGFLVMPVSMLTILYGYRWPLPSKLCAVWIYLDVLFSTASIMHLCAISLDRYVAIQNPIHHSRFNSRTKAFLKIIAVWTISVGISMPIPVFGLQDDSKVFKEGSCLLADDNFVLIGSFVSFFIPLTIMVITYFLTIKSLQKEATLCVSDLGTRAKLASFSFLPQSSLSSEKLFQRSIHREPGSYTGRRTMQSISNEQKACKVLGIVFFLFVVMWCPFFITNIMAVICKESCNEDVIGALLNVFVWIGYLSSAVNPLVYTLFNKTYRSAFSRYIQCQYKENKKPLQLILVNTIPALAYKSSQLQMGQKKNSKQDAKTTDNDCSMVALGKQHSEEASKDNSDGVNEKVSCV

Endothelin-1 receptor = target: T3, Endothelin-1 receptor (Homo sapiens, UniProt P25101)
T3 sequence (P25101 whole entry): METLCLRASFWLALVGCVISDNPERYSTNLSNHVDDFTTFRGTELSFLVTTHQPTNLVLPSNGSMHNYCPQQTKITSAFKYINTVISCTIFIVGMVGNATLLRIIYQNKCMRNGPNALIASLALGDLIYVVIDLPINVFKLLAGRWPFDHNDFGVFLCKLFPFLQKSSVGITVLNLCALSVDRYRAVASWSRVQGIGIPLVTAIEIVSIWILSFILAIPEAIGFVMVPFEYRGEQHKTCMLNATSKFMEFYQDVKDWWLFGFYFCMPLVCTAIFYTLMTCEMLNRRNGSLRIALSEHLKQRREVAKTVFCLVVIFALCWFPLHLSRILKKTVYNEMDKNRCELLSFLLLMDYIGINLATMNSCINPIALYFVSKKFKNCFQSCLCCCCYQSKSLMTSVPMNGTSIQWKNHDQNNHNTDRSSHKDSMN

Histamine H3 receptor = Histamine H3 receptor (Homo sapiens, UniProt Q9Y5N1)
Sequence of Histamine H3 receptor (Q9Y5N1 whole entry): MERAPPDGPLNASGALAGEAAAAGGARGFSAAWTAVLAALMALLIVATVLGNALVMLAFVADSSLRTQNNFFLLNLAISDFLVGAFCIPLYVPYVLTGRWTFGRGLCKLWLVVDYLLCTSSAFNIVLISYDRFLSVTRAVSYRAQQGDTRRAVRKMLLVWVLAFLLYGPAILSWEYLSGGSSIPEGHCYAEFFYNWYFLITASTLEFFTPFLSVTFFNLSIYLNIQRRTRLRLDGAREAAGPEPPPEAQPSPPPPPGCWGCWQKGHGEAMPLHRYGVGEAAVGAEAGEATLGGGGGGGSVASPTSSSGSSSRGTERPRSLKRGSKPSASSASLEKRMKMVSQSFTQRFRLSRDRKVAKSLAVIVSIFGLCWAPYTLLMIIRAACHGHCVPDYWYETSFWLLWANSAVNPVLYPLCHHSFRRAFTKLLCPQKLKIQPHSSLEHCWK
Also: assay procedure not described here.

Sequence of Melanocortin receptor 4 (P32245 whole entry): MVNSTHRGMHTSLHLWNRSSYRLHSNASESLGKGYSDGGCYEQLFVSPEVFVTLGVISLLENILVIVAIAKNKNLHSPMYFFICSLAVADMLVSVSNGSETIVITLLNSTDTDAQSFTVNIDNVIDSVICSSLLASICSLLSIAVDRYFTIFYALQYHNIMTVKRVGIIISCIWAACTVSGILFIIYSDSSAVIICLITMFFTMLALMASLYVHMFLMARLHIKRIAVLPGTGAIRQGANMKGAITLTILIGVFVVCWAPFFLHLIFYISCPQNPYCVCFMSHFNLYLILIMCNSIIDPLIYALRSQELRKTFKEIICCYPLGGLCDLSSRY
Sequence of Histamine H2 receptor (P25021 whole entry): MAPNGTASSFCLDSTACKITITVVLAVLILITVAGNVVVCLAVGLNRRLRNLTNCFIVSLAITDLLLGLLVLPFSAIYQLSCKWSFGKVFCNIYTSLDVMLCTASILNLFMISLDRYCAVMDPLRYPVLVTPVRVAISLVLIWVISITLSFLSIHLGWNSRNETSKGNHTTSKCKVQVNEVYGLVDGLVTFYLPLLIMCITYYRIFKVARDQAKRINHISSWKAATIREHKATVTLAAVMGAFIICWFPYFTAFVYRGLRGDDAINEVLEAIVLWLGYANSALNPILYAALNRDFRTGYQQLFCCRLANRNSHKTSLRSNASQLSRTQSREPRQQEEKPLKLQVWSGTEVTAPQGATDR
Sequence of Mu-type opioid receptor (P35372 whole entry): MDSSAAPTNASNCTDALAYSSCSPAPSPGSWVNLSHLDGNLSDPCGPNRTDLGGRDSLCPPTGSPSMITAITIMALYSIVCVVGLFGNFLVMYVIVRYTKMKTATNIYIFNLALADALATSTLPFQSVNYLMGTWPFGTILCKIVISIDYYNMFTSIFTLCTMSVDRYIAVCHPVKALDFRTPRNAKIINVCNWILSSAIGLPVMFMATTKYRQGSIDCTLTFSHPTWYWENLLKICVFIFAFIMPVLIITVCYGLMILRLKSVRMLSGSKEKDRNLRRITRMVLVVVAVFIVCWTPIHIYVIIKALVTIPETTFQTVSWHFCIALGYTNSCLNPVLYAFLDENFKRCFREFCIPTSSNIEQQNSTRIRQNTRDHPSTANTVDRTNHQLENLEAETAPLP

CCN(CCO)CCCC(C)Nc1ccnc2cc(Cl)ccc12 (configuration not stated) [HYDROXYCHLOROQUINE]
AC50 (Mu-type opioid receptor): > 30 µM | AC50 (Histamine H2 receptor): > 10 µM | AC50 (Melanocortin receptor 4): > 10 µM | AC50 (Glucocorticoid receptor): > 10 µM

CNC1(c2ccccc2Cl)CCCCC1=O (configuration not stated) [KETAMINE]
AC50 [1]: > 30 µM | AC50 (Estrogen receptor): > 30 µM | AC50 [2]: > 30 µM

CCN(CC)CCn1c(=O)c(Cc2ccc(OC)cc2)nc2ccccc21 [CAROVERINE]
AC50 [3]: > 30 µM | AC50 (Endothelin-1 receptor): > 30 µM | AC50 (Histamine H3 receptor): 2.38 µM | AC50 (Histamine H2 receptor): > 30 µM | AC50 (Melanocortin receptor 4): > 30 µM | AC50 (Glucocorticoid receptor): > 30 µM

O=P1(N(CCCl)CCCl)NCCCO1 (configuration not stated) [CYCLOPHOSPHAMIDE ANHYDROUS]
AC50 [1]: > 30 µM | AC50 (Estrogen receptor): > 30 µM | AC50 [2]: > 30 µM

NCCCCCC(=O)O [AMINOCAPROIC ACID]
AC50 (Mu-type opioid receptor): > 30 µM | AC50 (Histamine H3 receptor): > 10 µM | AC50 (Histamine H2 receptor): > 10 µM | AC50 (Melanocortin receptor 4): > 10 µM | AC50 (Glucocorticoid receptor): > 10 µM

C=CC1=C(C(=O)O)N2C(=O)[C@@H](NC(=O)/C(=N\O)c3csc(N)n3)[C@H]2SC1
AC50 [3]: > 30 µM | AC50 (Mu-type opioid receptor): > 30 µM | AC50 (Histamine H3 receptor): > 10 µM | AC50 (Histamine H2 receptor): > 10 µM | AC50 (Melanocortin receptor 4): > 30 µM

O=C1[C@@H]2[C@H]3CC[C@H](C3)[C@@H]2C(=O)N1C[C@@H]1CCCC[C@H]1CN1CCN(c2nsc3ccccc23)CC1 [LURASIDONE]
AC50 (Endothelin-1 receptor): > 30 µM | AC50 (Mu-type opioid receptor): > 30 µM | AC50 (Histamine H3 receptor): > 30 µM | AC50 [1]: > 30 µM | AC50 (Estrogen receptor): > 30 µM | AC50 [2]: > 30 µM

C[C@]12CCC(=O)C=C1CC[C@H]1[C@@H]3CC[C@](O)(C(=O)CO)[C@@]3(C)C[C@H](O)[C@@]12F [FLUDROCORTISONE]
AC50 [3]: > 30 µM | AC50 (Endothelin-1 receptor): > 30 µM | AC50 (Mu-type opioid receptor): > 30 µM | AC50 (Histamine H3 receptor): > 10 µM | AC50 (Histamine H2 receptor): > 10 µM | AC50 (Melanocortin receptor 4): > 30 µM

NC(=O)C1(N2CCCCC2)CCN(CCCN2c3ccccc3CCc3ccccc32)CC1 [CARPIPRAMINE]
AC50 [1]: > 30 µM | AC50 (Estrogen receptor): > 30 µM | AC50 [2]: > 30 µM

CC(=O)Oc1ccccc1C(=O)O [ASPIRIN]
AC50 (Endothelin-1 receptor): > 30 µM | AC50 (Mu-type opioid receptor): > 30 µM | AC50 (Histamine H3 receptor): > 30 µM | AC50 [1]: > 30 µM | AC50 (Histamine H2 receptor): > 10 µM | AC50 (Melanocortin receptor 4): > 30 µM | AC50 (Estrogen receptor): > 30 µM | AC50 (Glucocorticoid receptor): > 30 µM

C[C@H](CS)C(=O)N1CCC[C@H]1C(=O)O [CAPTOPRIL]
AC50 (Mu-type opioid receptor): > 30 µM | AC50 (Histamine H3 receptor): > 10 µM | AC50 (Histamine H2 receptor): > 30 µM | AC50 (Melanocortin receptor 4): > 30 µM | AC50 (Glucocorticoid receptor): > 30 µM

CCC1(c2ccccc2)C(=O)NCNC1=O [PRIMIDONE]
AC50 (Mu-type opioid receptor): > 30 µM | AC50 (Histamine H2 receptor): > 10 µM | AC50 (Melanocortin receptor 4): > 10 µM | AC50 (Glucocorticoid receptor): > 10 µM

C[C@H](Nc1ncnc2[nH]cnc12)c1cc2cccc(Cl)c2c(=O)n1-c1ccccc1 [DUVELISIB]
AC50 [3]: > 30 µM | AC50 (Endothelin-1 receptor): > 30 µM | AC50 (Mu-type opioid receptor): > 30 µM | AC50 (Histamine H3 receptor): > 30 µM | AC50 [1]: > 30 µM | AC50 (Estrogen receptor): > 30 µM | AC50 [2]: > 30 µM

C[C@H](Cn1cnc2c(N)ncnc21)OCP(=O)(O)O [TENOFOVIR ANHYDROUS]
AC50 [3]: > 30 µM | AC50 (Histamine H3 receptor): > 30 µM | AC50 (Histamine H2 receptor): > 30 µM | AC50 (Melanocortin receptor 4): > 30 µM | AC50 (Glucocorticoid receptor): > 30 µM

Cc1c(C)c2c(c(C)c1O)CCC(C)(COc1ccc(CC3SC(=O)NC3=O)cc1)O2 (configuration not stated) [TROGLITAZONE]
AC50 (Endothelin-1 receptor): > 30 µM | AC50 (Mu-type opioid receptor): > 30 µM | AC50 (Histamine H3 receptor): > 30 µM | AC50 [1]: > 30 µM | AC50 (Histamine H2 receptor): > 30 µM | AC50 (Melanocortin receptor 4): > 30 µM | AC50 (Estrogen receptor): > 30 µM | AC50 [2]: > 30 µM

O=C(O)COC(=O)Cc1ccccc1Nc1c(Cl)cccc1Cl [ACECLOFENAC]
AC50 (Mu-type opioid receptor): > 30 µM | AC50 (Histamine H3 receptor): > 10 µM | AC50 (Histamine H2 receptor): > 10 µM | AC50 (Melanocortin receptor 4): > 30 µM
